Data reported in ChEMBL document CHEMBL1156422 (J Biol Chem, 2007).
Active and inactive are the calls of the source. The calls are words filed in the database; no cut-off is given here.

How the values were obtained:
[1] = target: T1, Serine/threonine-protein kinase PLK3 (Homo sapiens, UniProt Q9H4B4); assay: Inhibition of recombinant Plk3 assessed as casein substrate phosphorylation
Target sequence in this assay (Q9H4B4 whole entry): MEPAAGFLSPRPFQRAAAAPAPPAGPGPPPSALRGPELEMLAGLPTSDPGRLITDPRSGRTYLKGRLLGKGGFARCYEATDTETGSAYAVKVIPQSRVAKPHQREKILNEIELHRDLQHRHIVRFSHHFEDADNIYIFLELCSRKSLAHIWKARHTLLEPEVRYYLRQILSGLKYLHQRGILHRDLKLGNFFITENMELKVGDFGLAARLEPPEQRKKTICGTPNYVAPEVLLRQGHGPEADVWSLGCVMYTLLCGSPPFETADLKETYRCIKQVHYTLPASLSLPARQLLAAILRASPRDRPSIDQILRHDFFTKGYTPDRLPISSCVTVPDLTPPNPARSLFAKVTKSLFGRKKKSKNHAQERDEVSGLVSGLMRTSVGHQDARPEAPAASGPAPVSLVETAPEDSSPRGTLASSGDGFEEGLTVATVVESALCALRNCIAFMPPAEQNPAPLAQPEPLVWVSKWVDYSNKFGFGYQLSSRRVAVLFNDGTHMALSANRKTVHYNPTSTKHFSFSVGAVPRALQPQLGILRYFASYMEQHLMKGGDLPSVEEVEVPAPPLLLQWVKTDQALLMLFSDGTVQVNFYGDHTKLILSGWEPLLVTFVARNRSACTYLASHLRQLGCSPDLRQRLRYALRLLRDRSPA

[2] = target: Serine/threonine-protein kinase PLK2 (Homo sapiens) (UniProt Q9NYY3); assay: Inhibition of AX-7503 binding to recombinant Plk2 at 1 uM by Western blot
Sequence of Serine/threonine-protein kinase PLK2 (Homo sapiens) (Q9NYY3 whole entry, looked up): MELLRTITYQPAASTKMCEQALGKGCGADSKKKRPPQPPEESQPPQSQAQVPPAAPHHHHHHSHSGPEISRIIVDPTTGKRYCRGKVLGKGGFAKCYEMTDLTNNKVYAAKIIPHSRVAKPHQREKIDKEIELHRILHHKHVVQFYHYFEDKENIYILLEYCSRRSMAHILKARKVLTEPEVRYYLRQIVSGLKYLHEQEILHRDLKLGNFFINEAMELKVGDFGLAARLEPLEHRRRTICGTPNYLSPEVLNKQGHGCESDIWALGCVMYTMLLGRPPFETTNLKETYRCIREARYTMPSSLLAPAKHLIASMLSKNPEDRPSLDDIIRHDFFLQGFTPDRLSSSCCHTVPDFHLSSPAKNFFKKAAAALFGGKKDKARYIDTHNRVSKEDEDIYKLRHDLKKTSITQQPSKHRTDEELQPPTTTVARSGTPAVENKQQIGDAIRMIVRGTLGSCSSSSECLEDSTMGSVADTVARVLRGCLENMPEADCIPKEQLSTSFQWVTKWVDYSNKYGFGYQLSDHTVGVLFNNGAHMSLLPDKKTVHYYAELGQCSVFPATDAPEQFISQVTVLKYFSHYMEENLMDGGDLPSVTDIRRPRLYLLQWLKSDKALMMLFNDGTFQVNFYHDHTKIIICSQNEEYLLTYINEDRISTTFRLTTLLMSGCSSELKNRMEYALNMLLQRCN

[3] = target: T1, Serine/threonine-protein kinase PLK3; assay: Inhibition of AX-7503 binding to recombinant Plk3 expressed in HeLa cells by Western blot; format: cell-based
Target sequence in this assay (Q9H4B4 whole entry): as the sequence (Q9H4B4 whole entry) above

[4] = target: T1, Serine/threonine-protein kinase PLK3; assay: Inhibition of recombinant Plk3 expressed in human GM00637 cells at 1 uM; format: cell-based
Target sequence in this assay (Q9H4B4 whole entry, looked up): as the sequence (Q9H4B4 whole entry) above

[5] = target: T1, Serine/threonine-protein kinase PLK3; assay: Inhibition of Plk3 in human A549 cells assessed as casein substrate phosphorylation by Western blot; format: cell-based
Target sequence in this assay (Q9H4B4 whole entry): as above

[6] = target: T1, Serine/threonine-protein kinase PLK3; assay: Inhibition of recombinant Plk3 expressed in human GM00637 cells at 1 uM assessed as decrease in p53 serine-20 phosphorylation; format: cell-based
Target sequence in this assay (Q9H4B4 whole entry, looked up): as the sequence (Q9H4B4 whole entry) above

[7] = target: Serine/threonine-protein kinase PLK1 (Homo sapiens, UniProt P53350); assay: Inhibition of AX-7503 binding to recombinant Plk1 by Western blot
Sequence of Serine/threonine-protein kinase PLK1 (P53350 whole entry): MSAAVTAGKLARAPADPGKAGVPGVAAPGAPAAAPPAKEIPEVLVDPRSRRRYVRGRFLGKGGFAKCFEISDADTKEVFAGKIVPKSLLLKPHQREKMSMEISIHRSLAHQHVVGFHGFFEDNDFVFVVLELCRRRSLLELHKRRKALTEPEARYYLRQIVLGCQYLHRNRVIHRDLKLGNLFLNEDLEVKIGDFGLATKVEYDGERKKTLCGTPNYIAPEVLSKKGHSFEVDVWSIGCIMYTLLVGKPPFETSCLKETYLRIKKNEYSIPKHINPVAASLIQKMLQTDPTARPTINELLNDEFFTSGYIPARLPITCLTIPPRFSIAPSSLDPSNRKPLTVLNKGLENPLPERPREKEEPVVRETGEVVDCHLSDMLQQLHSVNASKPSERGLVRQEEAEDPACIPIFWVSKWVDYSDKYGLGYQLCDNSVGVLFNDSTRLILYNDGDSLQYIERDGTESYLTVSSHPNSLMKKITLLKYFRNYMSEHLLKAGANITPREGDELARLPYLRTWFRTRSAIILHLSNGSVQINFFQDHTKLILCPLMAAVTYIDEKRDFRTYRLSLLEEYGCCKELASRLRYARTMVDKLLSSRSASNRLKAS

SMILES | IC50 [1] [µM] | Activity [2] | IC50 [3] [µM] | inhibition [4] [%] | IC50 [5] [µM] | Activity [6] | IC50 [7] [µM]
COC[C@H]1OC(=O)c2coc3c2[C@@]1(C)C1=C(C3=O)[C@@H]2CCC(=O)[C@@]2(C)C[C@H]1OC(C)=O [WORTMANNIN] | 0.048 | Active | 0.049 | 75 | 0.22 | Active | –
O=c1cc(N2CCOCC2)oc2c(-c3ccccc3)cccc12 [LY-294002] | 88 | – | 3 | – | – | – | 2.1
